Data on 24 molecules can be found in US9062078B2, “Substituted 7-azabicyles and their use as orexin receptor modulators” (priority 2013, dated 2015).

Like-named read-outs stand apart in the source and are kept apart here.

One experiment has as its target human orexin 1 receptor (Homo sapiens (Human), UniProt O43613). As to the kind of experiment: Human orexin 1 receptor radioligand binding (competitive, [3H]-SB674042, CHO cell preparations).
The target of another experiment is rat orexin 1 receptor (Rattus norvegicus, UniProt P56718). As to the kind of experiment: Rat orexin 1 receptor radioligand binding (competitive, [3H]-SB674042, HEK293 cell preparations).
A further experiment addresses human orexin 2 receptor (Homo sapiens (Human), UniProt O43614). As to the kind of experiment: Human orexin 2 receptor radioligand binding (competitive, [3H]-EMPA, HEK293 cell preparations).
Where [1] appears, read: human orexin 2 receptor, [3H]-EMPA competition binding, read-out: hOX2 Ki (nm).
Setting [2] is: human orexin 1 receptor, [3H]-SB674042 competition binding, read-out: hOX1 Ki (nm).
[3] abbreviates: rat orexin 1 receptor, [3H]-SB674042 competition binding, read-out: rOX1 Ki (nm).

human orexin 2 receptor, sequence (O43614 whole entry): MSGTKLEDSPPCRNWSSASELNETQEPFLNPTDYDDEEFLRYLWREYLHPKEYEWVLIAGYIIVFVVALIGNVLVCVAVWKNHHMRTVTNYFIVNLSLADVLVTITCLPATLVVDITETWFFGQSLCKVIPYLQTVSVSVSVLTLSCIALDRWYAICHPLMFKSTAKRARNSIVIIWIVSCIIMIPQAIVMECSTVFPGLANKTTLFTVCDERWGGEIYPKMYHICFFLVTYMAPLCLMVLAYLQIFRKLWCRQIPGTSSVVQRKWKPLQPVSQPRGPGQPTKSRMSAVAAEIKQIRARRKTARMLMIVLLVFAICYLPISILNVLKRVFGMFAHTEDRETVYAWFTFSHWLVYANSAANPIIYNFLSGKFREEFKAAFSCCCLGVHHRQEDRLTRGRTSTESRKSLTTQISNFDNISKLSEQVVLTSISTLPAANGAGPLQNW
human orexin 1 receptor, sequence (O43613 whole entry): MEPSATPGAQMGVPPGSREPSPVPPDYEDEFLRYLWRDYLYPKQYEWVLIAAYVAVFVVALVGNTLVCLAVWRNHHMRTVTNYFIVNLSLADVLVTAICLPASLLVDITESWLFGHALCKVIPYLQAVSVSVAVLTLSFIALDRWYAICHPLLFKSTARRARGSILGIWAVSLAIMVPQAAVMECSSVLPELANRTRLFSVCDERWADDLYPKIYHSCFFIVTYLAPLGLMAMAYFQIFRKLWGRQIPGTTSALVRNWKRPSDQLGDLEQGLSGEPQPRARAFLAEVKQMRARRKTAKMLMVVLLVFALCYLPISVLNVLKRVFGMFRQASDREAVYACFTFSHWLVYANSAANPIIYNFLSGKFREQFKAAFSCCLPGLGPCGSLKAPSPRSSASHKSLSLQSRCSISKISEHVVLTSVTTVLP

Consider `Cc1nc(C(=O)N2C3CCC2C(COc2ccccn2)C3)c(-c2ccccc2)s1` (racemic) [Example 92, (±)-(2-methyl-5-phenylthiazol-4-yl)(2-((pyridin-2-yloxy)methyl)-7-azabicyclo[2.2.1]heptan-7-yl)methanone], for which the Ki is 11 nM at human orexin 1 receptor (hOX1 Ki (nm)), 20 nM on rat orexin 1 receptor (rOX1 Ki (nm)) and 218 nM on human orexin 2 receptor (setting [1]).

Regarding `Cc1ccc(-c2ncco2)c(C(=O)N2C3CCC2C(COc2ccccn2)C3)n1` (racemic) [Example 93, (±)-(6-methyl-3-(oxazol-2-yl)pyridin-2-yl)(2-((pyridin-2-yloxy)methyl)-7-azabicyclo[2.2.1]heptan-7-yl)methanone], the values for the Ki on human orexin 1 receptor (setting [2]), on rat orexin 1 receptor (setting [3]) and at human orexin 2 receptor (hOX2 Ki (nm)) were 73 nM, 40 nM and 836 nM, respectively.

As to `Cc1cc(-c2ccc(C)nc2C(=O)N2C3CCC2C(COc2ccccn2)C3)on1` (racemic) [Example 94, (±)-(6-methyl-3-(3-methylisoxazol-5-yl)pyridin-2-yl)(2-((pyridin-2-yloxy)methyl)-7-azabicyclo[2.2.1]heptan-7-yl)methanone], the Ki on human orexin 1 receptor (setting [2]) was found to be 200 nM; on rat orexin 1 receptor (setting [3]), 170 nM; on human orexin 2 receptor (setting [1]), 2100 nM.

For the molecule `Cc1cnn(-c2ccc(C)nc2C(=O)N2C3CCC2C(COc2ccccn2)C3)c1` (racemic) [Example 96, (±)-(6-methyl-3-(4-methyl-1H-pyrazol-1-yl)pyridin-2-yl)(2-((pyridin-2-yloxy)methyl)-7-azabicyclo[2.2.1]heptan-7-yl)methanone], the values for the Ki at human orexin 1 receptor (setting [2]), on rat orexin 1 receptor (setting [3]) and on human orexin 2 receptor (setting [1]) were 76 nM, 70 nM and 950 nM, respectively.

In the case of `Cc1ccc(N2CCCC2)c(C(=O)N2C3CCC2C(COc2ccccn2)C3)n1` (racemic) [Example 97, (±)-(6-methyl-3-(pyrrolidin-1-yl)pyridin-2-yl)(2-((pyridin-2-yloxy)methyl)-7-azabicyclo[2.2.1]heptan-7-yl)methanone], the results for the Ki on human orexin 1 receptor (setting [2]), at rat orexin 1 receptor (setting [3]) and at human orexin 2 receptor (setting [1]) were 32 nM, 35 nM and 840 nM, respectively.

As for `COc1cccc(-n2nccn2)c1C(=O)N1C2CCC1C(COc1ccc(F)cn1)C2` (racemic) [Example 108, (±)-(2-(((5-fluoropyridin-2-yl)oxy)methyl)-7-azabicyclo[2.2.1]heptan-7-yl)(2-methoxy-6-(2H-1,2,3-triazol-2-yl)phenyl)methanone], the values for the inhibition constant Ki at human orexin 1 receptor (setting [2]), at rat orexin 1 receptor (setting [3]) and at human orexin 2 receptor (setting [1]) were 12 nM, 10 nM and 12 nM, respectively.

In the case of `O=C(c1cc(F)ccc1-c1ccn[nH]1)N1C2CCC1C(COc1ccc(F)cn1)C2` (racemic) [Example 109, (±)-(5-fluoro-2-(1H-pyrazol-5-yl)phenyl)(2-(((5-fluoropyridin-2-yl)oxy)methyl)-7-azabicyclo[2.2.1]heptan-7-yl)methanone], the values for the Ki at human orexin 1 receptor (hOX1 Ki (nm)), on rat orexin 1 receptor (rOX1 Ki (nm)) and on human orexin 2 receptor (hOX2 Ki (nm)) were 20 nM, 29 nM and 99 nM, respectively.

In the case of `Cc1cccc(-n2nccn2)c1C(=O)N1C2CCC1C(COc1ccc(F)cn1)C2` (racemic) [Example 110, (±)-(2-(((5-fluoropyridin-2-yl)oxy)methyl)-7-azabicyclo[2.2.1]heptan-7-yl)(2-methyl-6-(2H-1,2,3-triazol-2-yl)phenyl)methanone], the Ki on human orexin 1 receptor (setting [2]) amounted to 67 nM; at rat orexin 1 receptor (setting [3]) it was 54 nM; at human orexin 2 receptor (setting [1]), 94 nM.

Turning to `COc1ccc(-n2nccn2)c(C(=O)N2C3CCC2C(COc2ccc(F)cn2)C3)c1` (racemic) [Example 114, (±)-(2-(((5-fluoropyridin-2-yl)oxy)methyl)-7-azabicyclo[2.2.1]heptan-7-yl)(5-methoxy-2-(2H-1,2,3-triazol-2-yl)phenyl)methanone], the figures for the Ki at human orexin 1 receptor (hOX1 Ki (nm)), on rat orexin 1 receptor (rOX1 Ki (nm)) and at human orexin 2 receptor (hOX2 Ki (nm)) were 48 nM, 20 nM and 73 nM, respectively.

As to `O=C(c1c(F)cccc1-n1nccn1)N1C2CCC1C(COc1ccc(F)cn1)C2` (racemic) [Example 115, (±)-(2-fluoro-6-(2H-1,2,3-triazol-2-yl)phenyl)(2-(((5-fluoropyridin-2-yl)oxy)methyl)-7-azabicyclo[2.2.1]heptan-7-yl)methanone], the Ki at human orexin 1 receptor (hOX1 Ki (nm)) worked out at 78 nM; at rat orexin 1 receptor (rOX1 Ki (nm)), 57 nM; on human orexin 2 receptor (hOX2 Ki (nm)), 108 nM.

As for `O=C(c1ccc(F)cc1-n1nccn1)N1C2CCC1C(COc1ccc(F)cn1)C2` (racemic) [Example 116, (±)-(4-fluoro-2-(2H-1,2,3-triazol-2-yl)phenyl)(2-(((5-fluoropyridin-2-yl)oxy)methyl)-7-azabicyclo[2.2.1]heptan-7-yl)methanone], the Ki turned out to be 250 nM at human orexin 1 receptor (setting [2]), 142 nM at rat orexin 1 receptor (setting [3]) and 315 nM on human orexin 2 receptor (setting [1]).

Regarding `O=C(c1cccc(F)c1-n1nccn1)N1C2CCC1C(COc1ccc(F)cn1)C2` (racemic) [Example 117, (±)-(3-fluoro-2-(2H-1,2,3-triazol-2-yl)phenyl)(2-(((5-fluoropyridin-2-yl)oxy)methyl)-7-azabicyclo[2.2.1]heptan-7-yl)methanone], the results for the Ki at human orexin 1 receptor (hOX1 Ki (nm)), at rat orexin 1 receptor (rOX1 Ki (nm)) and at human orexin 2 receptor (setting [1]) were 82 nM, 62 nM and 245 nM, respectively.

Turning to `O=C(c1cc(Cl)ccc1-n1nccn1)N1C2CCC1C(COc1ccc(F)cn1)C2` (racemic) [Example 120, (±)-(5-chloro-2-(2H-1,2,3-triazol-2-yl)phenyl)(2-(((5-fluoropyridin-2-yl)oxy)methyl)-7-azabicyclo[2.2.1]heptan-7-yl)methanone], the inhibition constant (Ki) on human orexin 1 receptor (setting [2]) worked out at 14 nM; at rat orexin 1 receptor (setting [3]), 15 nM; at human orexin 2 receptor (setting [1]) it was 124 nM.

With `Cc1ccc(C(=O)N2C3CCC2C(COc2ccc(F)cn2)C3)c(-n2nccn2)c1` (racemic) [Example 121, (±)-(2-(((5-fluoropyridin-2-yl)oxy)methyl)-7-azabicyclo[2.2.1]heptan-7-yl)(4-methyl-2-(2H-1,2,3-triazol-2-yl)phenyl)methanone], the inhibitory constant (Ki) on human orexin 1 receptor (setting [2]) stood at 68 nM; on rat orexin 1 receptor (setting [3]), 78 nM; at human orexin 2 receptor (setting [1]) it was 340 nM.

`Cc1ccc(C(=O)N2C3CCC2C(COc2ccc(F)cn2)C3)c(-c2ncccn2)c1` (racemic) [Example 122, (±)-(2-(((5-fluoropyridin-2-yl)oxy)methyl)-7-azabicyclo[2.2.1]heptan-7-yl)(4-methyl-2-(pyrimidin-2-yl)phenyl)methanone]: the Ki at human orexin 1 receptor (setting [2]) turned out to be 154 nM; at rat orexin 1 receptor (setting [3]), 118 nM; on human orexin 2 receptor (setting [1]), 1000 nM.

Regarding `O=C(c1cccc(F)c1-c1ncccn1)N1C2CCC1C(COc1ccc(F)cn1)C2` (racemic) [Example 124, (±)-(3-fluoro-2-(pyrimidin-2-yl)phenyl)(−2-(((5-fluoropyridin-2-yl)oxy)methyl)-7-azabicyclo[2.2.1]heptan-7-yl)methanone], the figures for the Ki on human orexin 1 receptor (hOX1 Ki (nm)), on rat orexin 1 receptor (rOX1 Ki (nm)) and at human orexin 2 receptor (setting [1]) were 52 nM, 83 nM and 355 nM, respectively.

As to `Cc1cccc(C(=O)N2C3CCC2C(COc2ccc(F)cn2)C3)c1-n1nccn1` (racemic) [Example 125, (±)-(2-(((5-fluoropyridin-2-yl)oxy)methyl)-7-azabicyclo[2.2.1]heptan-7-yl)(3-methyl-2-(2H-1,2,3-triazol-2-yl)phenyl)methanone], the Ki on human orexin 1 receptor (hOX1 Ki (nm)) is 29 nM; on rat orexin 1 receptor (rOX1 Ki (nm)), 47 nM; on human orexin 2 receptor (setting [1]) it was 132 nM.

`O=C(c1cc(CO)ccc1-n1nccn1)N1C2CCC1C(COc1ccc(F)cn1)C2` (racemic) [Example 126, (±)-(2-(((5-fluoropyridin-2-yl)oxy)methyl)-7-azabicyclo[2.2.1]heptan-7-yl)(5-(hydroxymethyl)-2-(2H-1,2,3-triazol-2-yl)phenyl)methanone]: the Ki on human orexin 1 receptor (setting [2]) was 27 nM; at rat orexin 1 receptor (setting [3]) it was 23 nM; at human orexin 2 receptor (setting [1]) it was 231 nM.

Consider `CCOc1ncc(Br)cc1C(=O)N1C2CCC1C(COc1ccccn1)C2` (racemic) [Example 157, (±)-(5-bromo-2-ethoxypyridin-3-yl)(2-((pyridin-2-yloxy)methyl)-7-azabicyclo[2.2.1]heptan-7-yl)methanone], for which the Ki stood at 134 nM at human orexin 1 receptor (hOX1 Ki (nm)), 94 nM at rat orexin 1 receptor (rOX1 Ki (nm)) and 537 nM at human orexin 2 receptor (setting [1]).

`CCOc1ccnc(OCC)c1C(=O)N1C2CCC1C(COc1ccccn1)C2` (racemic) [Example 163, (±)-(2,4-diethoxypyridin-3-yl)(2-((pyridin-2-yloxy)methyl)-7-azabicyclo[2.2.1]heptan-7-yl)methanone]: the Ki on human orexin 1 receptor (setting [2]) was 153 nM; at rat orexin 1 receptor (setting [3]), 150 nM; on human orexin 2 receptor (setting [1]), 150 nM.

On to `Cc1ccc(-n2nccn2)c(C(=O)N2C3CCC2C(COc2ncccc2C)C3)n1` (racemic) [Example 176, (±)-(6-methyl-3-(2H-1,2,3-triazol-2-yl)pyridin-2-yl)(2-(((3-methylpyridin-2-yl)oxy)methyl)-7-azabicyclo[2.2.1]heptan-7-yl)methanone], for which the Ki on human orexin 1 receptor (read-out: hOX1 Ki (nm)) was found to be 150 nM; on rat orexin 1 receptor (read-out: rOX1 Ki (nm)) it was 119 nM; at human orexin 2 receptor (setting [1]) it was 202 nM.

Regarding `Cc1cnc(C(=O)N2C3CCC2C(Nc2cnc(C(F)(F)F)cn2)C3)c(-n2nccn2)c1` (racemic) [Example 184, (±)-(5-methyl-3-(2H-1,2,3-triazol-2-yl)pyridin-2-yl)(2-(5-(trifluoromethyl)pyrazin-2-yl)amino)-7-azabicyclo[2.2.1]heptan-7-yl)methanone], the Ki stood at 349 nM on human orexin 1 receptor (setting [2]), 189 nM at rat orexin 1 receptor (setting [3]) and 4100 nM on human orexin 2 receptor (hOX2 Ki (nm)).

`Cc1ccc(-n2nccn2)c(C(=O)N2C3CCC2C(Nc2cnc(C(F)(F)F)cn2)C3)n1` (racemic) [Example 186, (±)-(6-methyl-3-(2H-1,2,3-triazol-2-yl)pyridin-2-yl)(2-(5-(trifluoromethyl)pyrazin-2-yl)amino)-7-azabicyclo[2.2.1]heptan-7-yl)methanone]: the results for the Ki at human orexin 1 receptor (hOX1 Ki (nm)), at rat orexin 1 receptor (rOX1 Ki (nm)) and at human orexin 2 receptor (hOX2 Ki (nm)) were 164 nM, 134 nM and 1200 nM, respectively.

With `O=C(c1cccc(F)c1-c1ncccn1)N1C2CCC1C(Nc1ccc(C(F)(F)F)cn1)C2` (racemic) [Example 192, (±)-(3-fluoro-2-(pyrimidin-2-yl)phenyl)(2-((5-(trifluoromethyl)pyridin-2-yl)amino)-7-azabicyclo[2.2.1]heptan-7-yl)methanone], the Ki at human orexin 1 receptor (hOX1 Ki (nm)) is 52 nM; on rat orexin 1 receptor (rOX1 Ki (nm)), 60 nM; at human orexin 2 receptor (hOX2 Ki (nm)), 1500 nM.

In general, Ki refers to a dissociation constant, usually derived from enzyme kinetics or from competition with a known ligand.
